# In ChEMBL document CHEMBL1147770, “Design, synthesis and structure-activity relationships of new phosphinate inhibitors of MurD” (Bioorg Med Chem Lett, 2006):
# Biological target: T1, UDP-N-acetylmuramoylalanine--D-glutamate ligase (Streptococcus pneumoniae serotype 4 (strain ATCC BAA-334 / TIGR4), UniProt Q97RU8)
# T1 sequence (Q97RU8 whole entry): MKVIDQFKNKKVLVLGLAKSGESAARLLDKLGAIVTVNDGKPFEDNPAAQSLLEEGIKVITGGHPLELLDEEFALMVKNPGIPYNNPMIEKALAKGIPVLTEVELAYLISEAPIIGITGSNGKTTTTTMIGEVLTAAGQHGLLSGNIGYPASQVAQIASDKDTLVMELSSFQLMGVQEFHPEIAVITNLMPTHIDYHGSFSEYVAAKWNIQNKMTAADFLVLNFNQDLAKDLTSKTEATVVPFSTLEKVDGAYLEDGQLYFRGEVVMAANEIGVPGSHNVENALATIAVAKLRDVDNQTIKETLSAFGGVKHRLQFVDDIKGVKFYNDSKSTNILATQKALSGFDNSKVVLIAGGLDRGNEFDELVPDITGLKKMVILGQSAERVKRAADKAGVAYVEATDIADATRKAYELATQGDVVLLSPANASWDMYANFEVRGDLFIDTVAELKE
# Test: Inhibitory activity against MurD from Streptococcus pneumoniae
row,IC50 [µM],Compound
1,100,CC(NC(=O)OCc1ccccc1)P(=O)(O)CC(CCC(=O)O)C(=O)O (configuration not stated)

# Biological target: T2, UDP-N-acetylmuramoylalanine--D-glutamate ligase (Escherichia coli K-12) (UniProt P14900)
# T2 sequence (whole entry): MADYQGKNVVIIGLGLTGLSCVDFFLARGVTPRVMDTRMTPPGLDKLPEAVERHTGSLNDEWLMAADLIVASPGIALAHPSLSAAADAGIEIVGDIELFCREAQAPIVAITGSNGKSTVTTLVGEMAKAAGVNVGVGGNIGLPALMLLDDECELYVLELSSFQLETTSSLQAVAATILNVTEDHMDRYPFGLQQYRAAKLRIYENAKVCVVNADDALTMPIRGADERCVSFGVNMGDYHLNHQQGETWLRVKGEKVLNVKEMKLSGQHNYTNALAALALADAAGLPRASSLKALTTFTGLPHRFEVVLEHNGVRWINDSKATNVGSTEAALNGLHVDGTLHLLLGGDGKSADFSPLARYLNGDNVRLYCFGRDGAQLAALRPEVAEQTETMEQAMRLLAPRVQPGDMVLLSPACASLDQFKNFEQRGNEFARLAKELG
# Test: Residual activity of MurD from Escherichia coli at 1 mM
row,Activity [%],Compound
1,37,CC(NS(=O)(=O)Cc1ccc(F)cc1Cl)P(=O)(O)CC(CCC(=O)O)C(=O)O (configuration not stated)
2,52,CC(NS(=O)(=O)c1cccc([N+](=O)[O-])c1)P(=O)(O)CC(CCC(=O)O)C(=O)O (configuration not stated)
3,36,CC(NC(=O)Cc1ccc2c(c1)OCO2)P(=O)(O)CC(CCC(=O)O)C(=O)O (configuration not stated)
4,65,CC(C)CC(NC(=O)OCc1ccccc1)P(=O)(O)CC(CCC(=O)O)C(=O)O (configuration not stated)
5,8,CC(NC(=O)[C@@H](C)NS(=O)(=O)Cc1ccc([N+](=O)[O-])cc1)P(=O)(O)CC(CCC(=O)O)C(=O)O (some centres not stated)
6,49,CC(NS(=O)(=O)Cc1cccc(C(F)(F)F)c1)P(=O)(O)CC(CCC(=O)O)C(=O)O (configuration not stated)
7,55,CC(NS(=O)(=O)c1ccc2ccccc2c1)P(=O)(O)CC(CCC(=O)O)C(=O)O (configuration not stated)
8,100,CC(NC(=O)[C@H](C)NS(=O)(=O)Cc1ccc([N+](=O)[O-])cc1)P(=O)(O)CCC(=O)O (some centres not stated)
9,44,CC(NC(=O)[C@@H](C)NC(=O)Cc1ccc2c(c1)OCO2)P(=O)(O)CC(CCC(=O)O)C(=O)O (some centres not stated)
10,30,CC(NS(=O)(=O)Cc1ccccc1[N+](=O)[O-])P(=O)(O)CC(CCC(=O)O)C(=O)O (configuration not stated)
11,22,CC(NS(=O)(=O)Cc1cccc([N+](=O)[O-])c1)P(=O)(O)CC(CCC(=O)O)C(=O)O (configuration not stated)
12,91,CC(NC(=O)/C=C/c1ccc2c(c1)OCO2)P(=O)(O)CCC(=O)O (configuration not stated)
13,92,CC(NC(=O)OCc1ccccc1)P(=O)(O)CCC(=O)O (configuration not stated)
14,66,CC(C)C(NC(=O)OCc1ccccc1)P(=O)(O)CC(CCC(=O)O)C(=O)O (configuration not stated)
15,19,CC(NC(=O)[C@@H](C)NS(=O)(=O)Cc1cccc([N+](=O)[O-])c1)P(=O)(O)CC(CCC(=O)O)C(=O)O (some centres not stated)
16,54,CC(NS(=O)(=O)c1ccccc1)P(=O)(O)CC(CCC(=O)O)C(=O)O (configuration not stated)
17,23,CC(NC(=O)/C=C/c1cccc(O)c1)P(=O)(O)CC(CCC(=O)O)C(=O)O (configuration not stated)
18,41,CC(NC(=O)OCc1ccccc1)P(=O)(O)CC(CCC(=O)O)C(=O)O (configuration not stated)
19,40,CC(NS(=O)(=O)Cc1ccccc1)P(=O)(O)CC(CCC(=O)O)C(=O)O (configuration not stated)
20,28,CC(NC(=O)/C=C/c1ccccc1)P(=O)(O)CC(CCC(=O)O)C(=O)O (configuration not stated)
21,83,CCC(C)C(NC(=O)OCc1ccccc1)P(=O)(O)CC(CCC(=O)O)C(=O)O (configuration not stated)
22,50,CC(NS(=O)(=O)Cc1ccc(C(F)(F)F)cc1)P(=O)(O)CC(CCC(=O)O)C(=O)O (configuration not stated)
23,47,CC(NS(=O)(=O)Cc1ccc([N+](=O)[O-])cc1)P(=O)(O)CC(CCC(=O)O)C(=O)O (configuration not stated)

# Biological target: T3, UDP-N-acetylmuramoylalanine--D-glutamate ligase (Escherichia coli K-12, UniProt P14900)
# T3 sequence (P14900 whole entry): T2 sequence (whole entry)
# Test: Inhibitory activity against MurD from Escherichia coli
row,IC50 [µM],Compound
1,78,CC(NC(=O)[C@@H](C)NS(=O)(=O)Cc1ccc([N+](=O)[O-])cc1)P(=O)(O)CC(CCC(=O)O)C(=O)O (some centres not stated)
2,432,CC(NC(=O)/C=C/c1ccccc1)P(=O)(O)CC(CCC(=O)O)C(=O)O (configuration not stated)
3,95,CC(NC(=O)/C=C/c1ccc2c(c1)OCO2)P(=O)(O)CC(CCC(=O)O)C(=O)O (configuration not stated)
